Source: US6914064B2, “1,4-Disubstituted piperazine derivatives useful as uro-selective α1-adrenoceptor blockers” (Ranbaxy Laboratories Limited, priority 2000, dated 2005)

Tested on: phenylephrine response on mean arterial pressure (MAP) and intraurethral pressure (IUP)
Assay: In vivo uroselectivity study in conscious beagle dogs
Details: for Area Under Curve IUP / Area Under Curve MAP: percent change of phenylephrine (16 μg/kg i.v.) response, 0.5-24 hours
Description: In order to assess the uroselectivity in vivo, the effects of these compounds were studied on mean arterial pressure (MAP) and intraurethral pressure (IUP) in conscious beagle dogs as per the method of Brune et. al. (Pharmacol 1996, 53:356-368). Briefly, male dogs were instrumented for chronic continuous measurement of arterial blood pressure by implanting a telemetry transmitter (TL11M2-D70-PCT, Data Sci. International, St. Paul, Minn. USA) into the femoral artery, two weeks prior to the study. During the recovery period, the animal was acclimatized to stay in the sling restraint. On the day of testing, overnight fasted animal was placed in the sling restraint. A Swan-Ganz. Balloon tipped catheter was introduced into the urethra at the level of prostate and the balloon was inflated (Brune. et. al. 1996). After recording the base line readings, effect of 16 μg/kg, phenylephrine (i.v.) on MAP and IUP was recorded. The response of phenylephrine to MAP and IUP were recorded at 0.5, 1, 2, 3, 4, 6, 9 and 24 hours after the oral administration of vehicle or the test drug. The changes in MAP was recorded on line using Dataquest Software (Data Sci. International. St. Paul, Minn. USA) and IUP was recorded on a Grass Polygraph (Model 7, Grass Instruments, USA). The change in phenylephrine response on MAP and IUP administration after the test drug administration was calculated as percent change of that of control values. Area under curve was calculated and the ratio of the values for MAP and IUP was used for calculating the uroselectivity (Table III)

CCCOc1ccccc1N1CCN(CCCN2C(=O)C3CC=CCC3C2=O)CC1.Cl (stereo not drawn) [Compound 24, 2-[3-{4-(2-Propoxyphenyl)piperazin-1-yl}propyl]-3a,4,7,7a-tetrahydro-1H-isoindole-1,3(2H)-dione hydrochloride]
Uroselectivity Ratio IUP/MAP (3 μg/kg p.o.): 7.6
Area Under Curve IUP (3 μg/kg p.o.): 522
Area Under Curve MAP (3 μg/kg p.o.): 68

CC(C)Oc1ccccc1N1CCN(CCCN2C(=O)C3CC=CCC3C2=O)CC1.Cl (stereo not drawn) [Compound 23, 2-[3-{4-(2-Isopropoxyphenyl)piperazin-1-yl}propyl]-3a,4,7,7a-tetrahydro-1H-isoindole-1,3(2H)-dione hydrochloride]
Uroselectivity Ratio IUP/MAP (3 μg/kg p.o.): 4
Area Under Curve IUP (3 μg/kg p.o.): 790
Area Under Curve MAP (3 μg/kg p.o.): 197

COc1ccccc1N1CCN(CCCN2C(=O)C3CC=CCC3C2=O)CC1.Cl (stereo not drawn) [Compound 01, 2-[3-{4-(2-Methoxyphenyl)piperazin-1-yl}propyl]-3a,4,7,7a-tetrahydro-1H-isoindole-1,3(2H)-dione hydrochloride]
Uroselectivity Ratio IUP/MAP (100 μg/kg p.o.): 5.54
Area Under Curve IUP (100 μg/kg p.o.): 514
Area Under Curve MAP (100 μg/kg p.o.): 93

CCOc1ccccc1N1CCN(CCCN2C(=O)C3CC=CCC3C2=O)CC1.Cl (stereo not drawn) [Compound 11, 2-[3-{4-(2-Ethoxyphenyl)piperazin-1-yl}propyl]-3a,4,7,7a-tetrahydro-1H-isoindole-1,3(2H)-dione hydrochloride]
Uroselectivity Ratio IUP/MAP (10 μg/kg p.o.): 66
Area Under Curve IUP (10 μg/kg p.o.): 661
Area Under Curve MAP (10 μg/kg p.o.): 10
